This is an account of results in publication PMC9268243, “Metabolic Behaviors of Aconitum Alkaloids in Different Concentrations of Aconiti Lateralis Radix Praeparata and Effects of Aconitine in Healthy Human and Long QT Syndrome Cardiomyocytes” (Molecules, 2022).

In general, Cmax refers to the maximum level reached in the sampled fluid or tissue. A word on the Tmax: it is the time at which the peak concentration occurs.

A short description of data set [1]: Pharmacokinetic study of six aconitum alkaloids in rat plasma after oral Fu Zi extracts (UPLC-MS/MS). Format: in vivo, Sprague Dawley rats. Particulars: SD rat plasma, mean ± SD, n = 8; for Cmax / Tmax / AUC(0-t) / CL/F / Vd/F / half-life: both sexes, Sprague Dawley, in vivo; for AUC(0-t): read-out: AUC(0–48h); for CL/F: read-out: CLz/F (converted); for Vd/F: read-out: Vz/F; for half-life: read-out: t1/2z (converted). The protocol:
Fu Zi (200 g) was taken and broken by a pulverizer to the size of 0.5–1.0 cm. The broken Fu Zi was soaked in 1.6 L distilled water and boiled for 0.5 h. The filtrate was collected and the previous step was repeated for the filtered residue. The mixed filtrates were precipitated with 60% ethanol, and then centrifuged (2000× g, 10 min). The supernatant was decompressed and concentrated to a final density of 2.0 g/mL by the amount of the crude drugs. The final concentration of ethanol in Fu Zi extracts before administration was below 0.5%. The extract was subsequently kept at −20 °C for oral administration to rats.
All samples were analyzed on UPLC® I-Class and Xevo® TQS mass spectrometry combined system. Separations by a Waters ACQUITY UPLC® HSS T3(2.1 mm × 100 mm, 1.8 μm) column were conducted with a mobile phase of water (A) and acetonitrile (B), both containing 0.1% formic acid, at the flow rate of 0.3 mL·min^−1.The run time was 5.0 min and the gradient elution program was adopted as follows: 0–0.3 min, 10% B; 0.3–1 min, 10–50% B; 1–2.5 min, 50–90% B; 2.5–3 min, 90% B; 3–5 min, 10% B. The temperature of the column and samples were set at 45 °C and 10 °C, respectively. The volume of injection was 2 μL.
The detection was quantified by a triple quadrupole mass spectrometer that was set as multiple reactive monitoring (MRM) in the electrospray positive ionization mode (ESI+). The correlative parameters were as follows: capillary voltage: 3 kV; desolvation gas flow: 800 L·h^−1; cone gas flow: 150 L·h^−1; source temperature: 150 °C; desolvation temperature: 500 °C.
The method of […] was utilized. An amount of 100 μL of plasma samples from rats after oral administration of Fu Zi extracts was precipitated with 300 μL of 50% acetonitrile plus 50% methanol, vortexed for 1.0 min and centrifuged at a speed of 12,000× g at 4 °C for 10 min. The supernatant was transferred to another 1.5 mL centrifuge tube, dried with a stream of nitrogen at 40 °C, redissolved in 50 μL methanol and centrifuged at 12,000× g for 10 min. Then, the supernatant was pipetted out into the autosampler vials and analyzed by UPLC-MS/MS system.
24 Sprague Dawley rats (half male and female, weight 180–220 g) were purchased from Beijing Weitong Lihua Biotechnology Co.Ltd. (Beijing, China). The license number of experimental animal production was SCXK (Jing) 2016–0006. The animals were maintained under a standard laboratory condition (humidity: 40–70%, room temperature: 20–26 °C, […], 12 h dark-light cycle) and fed separately. All animal experiments were conducted according to the Guide for the Care and Use of Laboratory Animals (National Research Council of the USA, 1996) and approved by the Institutional Animal Care and Use Committee (IACUC-DWZX-2020-776). After 5 days of acclimation, the rats were fasted for 12 h but provided with water freely before the experiments. The rats were randomly divided into 3 groups: high (2.0 g/kg), middle (1.0 g/kg), and low (0.5 g/kg) dose groups. The Fu Zi extracts was administered to each rat intragastrically. An equivalent of 0.20 mL blood samples were collected from the fossa orbitalis vein into 1.5 mL heparinized centrifuge tubes at the designated time points after dosing: 0.08, 0.25, 0.5, 1, 2, 4, 8, 12, 24, and 48 h. The plasma samples were pipetted out into another 1.5 mL centrifuge tubes after being centrifuged at 5000× g for 10 min and then stored at −20 °C until further analysis.
The data were acquired by […] from Waters (UNIFI). Microsoft Office Excel and the SPSS software (Version 13.0) was used for data analysis. The data below the LLOQ were regarded as zero in summary statistics. The pharmacokinetic parameters were calculated by DAS pharmacokinetic program (Version 2.0) and all analyzed by non-compartmental method. […] All data were presented as mean ± SD. […]

The next data set deals with CYP3A4. Particulars: in vivo; cited from earlier work.

Read-outs that look alike come from different tables or passages of the source.

In the case of `COC[C@@]12CC[C@H](OC)[C@]34C(C([C@H](OC)[C@H]13)[C@]1(OC(C)=O)[C@H]3[C@@H](OC(=O)c5ccccc5)[C@](O)(C[C@H]34)[C@@H](OC)[C@@H]1O)N(C)C2` [HA, hypaconitine], in data set [1] (oral Fu Zi extracts 1.0 g/kg), the t1/2z is 8.72 ± 3.40 h, the Cmax worked out at 9.22 ± 1.78 ng/mL, the Tmax was 3.88 ± 2.03 h and the AUC(0-t) stood at 115 ± 25 ng·h/mL. For the same compound, in data set [1] (oral Fu Zi extracts 1.0 g/kg), the CL/F is 59.5 mL/min/kg and the Vd/F came to 45.3 ± 26.3 L/kg. Also, in data set [1] (oral Fu Zi extracts 0.5 g/kg), the concentration peaked (Cmax) at 6.37 ± 1.96 ng/mL, the Tmax was determined as 2.14 ± 0.9 h, the AUC(0-t) was 62.9 ± 26.9 ng·h/mL and the CL/F was 67 mL/min/kg. In data set [1] (oral Fu Zi extracts 0.5 g/kg), the Vd/F was 12.8 ± 6.88 L/kg and the half-life is 1.83 ± 0.64 h. For the same compound, in data set [1] (oral Fu Zi extracts 2.0 g/kg), the Cmax was determined as 12.5 ± 4.42 ng/mL, the Tmax was 1.6 ± 1.47 h, the AUC(0-t) came to 186 ± 64.7 ng·h/mL and the CL/F was 79.7 mL/min/kg. Besides, in data set [1] (oral Fu Zi extracts 2.0 g/kg), the Vd/F stood at 80.4 ± 35.5 L/kg and the half-life is 11.9 ± 4.59 h. Further, in the data set on CYP3A4, the “main CYP 450 subtype for alkaloid metabolism” value is given as “CYP3A4”.
On to `CCN1CC2(COC)C(O)CC(OC)C34C5CC6(O)C(OC)C(O)C(O)(C5C6OC(=O)c5ccccc5)C(C(OC)C23)C14` (stereo not shown) [BAC, benzoylaconine], for which, in data set [1] (oral Fu Zi extracts 0.5 g/kg), the highest level (Cmax) was 1.52 ± 0.71 ng/mL, the Tmax worked out at 3.72 ± 3.6 h, the AUC(0-t) turned out to be 16.2 ± 5.43 ng·h/mL and the CL/F is 460 mL/min/kg. Moreover, in data set [1] (oral Fu Zi extracts 0.5 g/kg), the Vd/F was found to be 194 ± 117 L/kg and the half-life is 4.48 ± 0.64 h. In data set [1] (oral Fu Zi extracts 1.0 g/kg), the Cmax came out at 3.24 ± 2.01 ng/mL, the Tmax worked out at 5.71 ± 5.07 h, the AUC(0-t) is 38.5 ± 15.4 ng·h/mL and the CL/F is 271 mL/min/kg. In data set [1] (oral Fu Zi extracts 1.0 g/kg), the Vd/F was found to be 152 ± 97.1 L/kg and the half-life is 5.91 ± 3.79 h. In data set [1] (oral Fu Zi extracts 2.0 g/kg), the Cmax was 5.91 ± 2.25 ng/mL, the Tmax was 0.34 ± 0.2 h, the AUC(0-t) worked out at 50.5 ± 19.4 ng·h/mL and the CL/F is 583 mL/min/kg. Besides, in data set [1] (oral Fu Zi extracts 2.0 g/kg), the Vd/F was 801 ± 396 L/kg and the half-life was 13.7 ± 4.26 h.
